Measured values as given in US6825217B2, “Carbinols for the treatment of neuropathic dysfunction” (Endo Pharmaceuticals, Inc., priority 2001, dated 2004).

How the values were obtained:
uptake of dopamine = molecular target: T1, uptake of dopamine (Rattus norvegicus, UniProt P23977); assay: Dopamine uptake in rat brain preparations; type: biochemical; conditions: printed as 'and/or dopamine'
T1 construct: dopamine in rat brain preparations; from tissue; host or cells: rat brain preparations

[1] = system: sigma receptor sites in the brain; assay: Activity at sigma receptor sites in the brain; type: binding
[2] = Fourteen-day Oral Dose Range Finding Study in Rats; type: in vivo, rat
Rat Randall-Selitto = type: in vivo; set-up: key to activity in rat Randell-Selitto model: *: Inactive; Φ: Weakly active
[3] = Abuse assay (self-administration); type: in vivo, Cynomologous monkeys
Procedure: Cynomologous monkeys are trained to self-administer drugs by pressing on a lever a certain number of times. The number of times an animal will press the lever before extinquishing in an attempt to self-administer drug is calculated as their fixed ratio (FR). For example, cynomologous monkeys that are trained to self-administer codeine will press the lever 300 times (FR 300) and or 10,000 times (FR 10,000) to obtain a dose of codeine. Cynomologous monkeys were trained to self-administer the compounds of the present invention.

[4] = molecular target: T2, mu receptor sites in the brain (Homo sapiens, UniProt P35372); assay: Activity at mu receptor sites in the brain; type: binding
T2 construct: mu, kappa, delta or sigma receptor sites in the brain; from tissue
T2 sequence (P35372 whole entry): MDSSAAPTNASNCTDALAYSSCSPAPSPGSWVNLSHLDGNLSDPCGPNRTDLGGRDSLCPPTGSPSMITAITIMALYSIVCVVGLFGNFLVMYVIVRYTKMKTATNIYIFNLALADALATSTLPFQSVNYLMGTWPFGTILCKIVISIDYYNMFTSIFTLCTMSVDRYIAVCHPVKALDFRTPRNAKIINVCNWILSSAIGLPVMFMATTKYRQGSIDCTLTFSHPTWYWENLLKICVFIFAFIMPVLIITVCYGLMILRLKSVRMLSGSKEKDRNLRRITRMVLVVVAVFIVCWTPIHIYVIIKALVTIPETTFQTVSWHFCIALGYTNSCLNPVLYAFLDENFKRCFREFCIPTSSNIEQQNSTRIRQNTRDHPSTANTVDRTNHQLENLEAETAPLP

Mouse Tail-Flick = type: in vivo; set-up: key to activity in mouse Tail flick model: *: Inactive; Φ: Weakly active
[5] = molecular target: T3, rat synaptosomal 5-HT Reuptake (Rattus norvegicus, UniProt P31652); assay: Serotonin reuptake assay (rat synaptosomal 5-HT uptake); type: biochemical
T3 construct: rat synaptosomal 5-HT and NE Reuptake; from tissue; host or cells: rat synaptosomes (rat brain preparations)
T3 sequence (P31652 whole entry): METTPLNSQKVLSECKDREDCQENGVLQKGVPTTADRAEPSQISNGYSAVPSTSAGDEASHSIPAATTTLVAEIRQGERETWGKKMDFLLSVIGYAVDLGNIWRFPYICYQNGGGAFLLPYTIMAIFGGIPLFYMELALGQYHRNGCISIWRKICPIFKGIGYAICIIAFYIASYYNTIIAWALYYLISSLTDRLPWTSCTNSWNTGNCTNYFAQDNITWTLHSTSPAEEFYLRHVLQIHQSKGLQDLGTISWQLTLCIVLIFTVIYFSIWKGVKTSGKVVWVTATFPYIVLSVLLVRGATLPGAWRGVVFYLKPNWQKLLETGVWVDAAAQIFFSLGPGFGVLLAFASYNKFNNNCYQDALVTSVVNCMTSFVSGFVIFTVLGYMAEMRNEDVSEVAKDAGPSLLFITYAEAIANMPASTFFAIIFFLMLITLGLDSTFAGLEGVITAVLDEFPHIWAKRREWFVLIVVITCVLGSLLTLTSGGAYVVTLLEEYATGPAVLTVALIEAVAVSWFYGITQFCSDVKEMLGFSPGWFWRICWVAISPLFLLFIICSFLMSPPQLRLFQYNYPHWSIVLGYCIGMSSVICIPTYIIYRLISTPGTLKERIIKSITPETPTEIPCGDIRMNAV

[6] = Side effects at effective doses; type: in vivo; conditions: at effective doses for neuropathic pain
[7] = Chung model (tactile allodynia); type: in vivo, rat
Procedure: This model for neuropathic pain was performed on rats using the surgical procedure described by Kim and Chung (1992) to induce an allodynic state. Briefly, the left L-5 and L-6 spinal nerves were isolated adjacent to the vertebral column and ligated with 6-0 silk suture distal to the dorsal root ganglion under isoflurane anesthesia. This model allows for spinal cord structural reorganization and growth of low threshold mechnoreceptor fibers from the spinal cord with synaptic connections and rewiring of the dorsal horn. This leads to spontaneous firing of invading sympathetic nerves and upregulation of receptors and voltage-dependent channels; i.e. mimics the development of allodynia (nociceptive response to a previously neutral stimulus). The rats were allowed a minimum of 7-days postoperative recovery period before testing.
To assess tactile thresholds in the Chung model, rats were placed in a clear plastic, wire mesh-bottomed cage, divided into individual compartments. Animals were allowed to acclimate and then baseline thresholds were assessed prior to drug treatment. To assess the 50% mechanical threshold for paw withdrawal, von Frey hairs were applied to the plantar mid-hindpaw, avoiding the tori (footpads). The eight von Frey hairs used are designated by [log (10*force required to bend hair, mg)] and range from 0.4-15.1 grams (#'s 3.61-5.18). Each hair was pressed perpendicularly against the paw with sufficient force to cause slight bending, and held for approximately 6-8 seconds. A positive response was noted if the paw was sharply withdrawn. Flinching immediately upon removal of the hair was also considered a positive response. Absence of a response (“−”) was cause to present the next consecutive stronger stimulus; a positive response (“+”) was cause to present the next weaker stimulus. Stimuli were presented successively until either six data points were collected, or the maximum or minimum stimulus was reached. If a minimum stimulus was reached and positive responses still occurred, the threshold was assigned an arbitrary minimum value of 0.25 grams; if a maximum stimulus was presented and no response occurred, a maximum threshold value of 15 grams was assigned. If a change in response occurs, either “−” to “+” or “+” to “−”, causing a change in the direction of stimulus presentation from descending to ascending or vice-versa, four additional data points were collected subsequent to the change.

[8] = molecular target: T4, kappa receptor sites in the brain (Homo sapiens, UniProt P41145); assay: Activity at kappa receptor sites in the brain; type: binding
T4 construct: mu, kappa, delta or sigma receptor sites in the brain; from tissue
T4 sequence (P41145 whole entry): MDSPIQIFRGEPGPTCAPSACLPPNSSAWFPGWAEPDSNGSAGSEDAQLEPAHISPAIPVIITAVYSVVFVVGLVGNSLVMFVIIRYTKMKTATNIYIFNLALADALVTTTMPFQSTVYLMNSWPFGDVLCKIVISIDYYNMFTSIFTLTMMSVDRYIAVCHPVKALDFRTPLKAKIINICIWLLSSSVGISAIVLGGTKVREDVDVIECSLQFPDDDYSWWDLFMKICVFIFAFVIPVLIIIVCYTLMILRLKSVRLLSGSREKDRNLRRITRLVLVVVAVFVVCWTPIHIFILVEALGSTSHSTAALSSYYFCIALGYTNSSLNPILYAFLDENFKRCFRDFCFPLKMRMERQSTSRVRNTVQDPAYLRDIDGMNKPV

Safety pharmacology, rat = type: in vivo
[9] = Mouse antiphenylquinone writhing (PQW) test; type: in vivo
Procedure: (§1) The anti-phenylquinone writhing (PQW) test modified from the methods of Siegmund et al. (Proc. Soc. Exp. Biol. Med. 95: 729-731, 1957) and Blumberg et al. (Proc. Exp. Biol. Med. 118: 763-767, 1965) was used to assess the relief from the simulated symptoms of neuropathic pain in mice. Male CF1 mice (Charles River Breeding Laboratories, Wilmington, Mass.), fasted for 16-22 hours and weighing 18-23 g, were injected with randomized and coded doses of test compounds, then challenged with 1.25 mg/kg i.p. phenyl-p-benzoquinone (phenylquinone) 5 minutes prior to the specified observation time. The phenylquinone solution (0.1 mg/ml in 5% aqueous ethanol) was prepared daily and stored in foil-wrapped amber bottles to limit degradation. Mice were observed 10 minutes for the presence or absence of the characteristic abdominal constriction and stretching response beginning 30 minutes after injection of the test compound. Activity was calculated as the percentage of mice failing to respond to the phenylquinone challenge dose. […] Median effective doses (ED50's) and 95% confidence limits were determined numerically by the methods of Thompson (Bacteriological Rev. 11: 115-145, 1947), and Litchfield and Wilcoxon (J. Pharmacol. Exp. Ther. 96: 99-113, 1949).

[10] = Anti-inflammatory effects in vivo
[11] = molecular target: T5, delta receptor sites in the brain (Homo sapiens, UniProt P41143); assay: Activity at delta receptor sites in the brain; type: binding
T5 construct: mu, kappa, delta or sigma receptor sites in the brain; from tissue
T5 sequence (P41143 whole entry): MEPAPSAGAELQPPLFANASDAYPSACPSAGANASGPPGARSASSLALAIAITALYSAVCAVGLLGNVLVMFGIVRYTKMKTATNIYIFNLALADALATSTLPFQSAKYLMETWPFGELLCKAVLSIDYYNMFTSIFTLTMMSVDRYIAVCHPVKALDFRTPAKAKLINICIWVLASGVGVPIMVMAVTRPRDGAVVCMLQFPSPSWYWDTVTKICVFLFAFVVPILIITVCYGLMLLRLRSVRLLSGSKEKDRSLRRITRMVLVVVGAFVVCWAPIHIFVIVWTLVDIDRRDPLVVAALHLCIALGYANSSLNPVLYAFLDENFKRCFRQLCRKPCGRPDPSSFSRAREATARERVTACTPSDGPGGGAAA

Bacterial Mutagenicity = assay: In Vitro Bacterial Mutagenicity: Modified Ames Test; type: cell-based
[12] = molecular target: T6, rat synaptosomal NE Reuptake (Rattus norvegicus, UniProt Q63380); assay: Norepinephrine reuptake assay (rat synaptosomal NE uptake); type: biochemical
T6 construct: rat synaptosomal 5-HT and NE Reuptake; from tissue; host or cells: rat synaptosomes (rat brain preparations)
T6 sequence (Q63380 1-617): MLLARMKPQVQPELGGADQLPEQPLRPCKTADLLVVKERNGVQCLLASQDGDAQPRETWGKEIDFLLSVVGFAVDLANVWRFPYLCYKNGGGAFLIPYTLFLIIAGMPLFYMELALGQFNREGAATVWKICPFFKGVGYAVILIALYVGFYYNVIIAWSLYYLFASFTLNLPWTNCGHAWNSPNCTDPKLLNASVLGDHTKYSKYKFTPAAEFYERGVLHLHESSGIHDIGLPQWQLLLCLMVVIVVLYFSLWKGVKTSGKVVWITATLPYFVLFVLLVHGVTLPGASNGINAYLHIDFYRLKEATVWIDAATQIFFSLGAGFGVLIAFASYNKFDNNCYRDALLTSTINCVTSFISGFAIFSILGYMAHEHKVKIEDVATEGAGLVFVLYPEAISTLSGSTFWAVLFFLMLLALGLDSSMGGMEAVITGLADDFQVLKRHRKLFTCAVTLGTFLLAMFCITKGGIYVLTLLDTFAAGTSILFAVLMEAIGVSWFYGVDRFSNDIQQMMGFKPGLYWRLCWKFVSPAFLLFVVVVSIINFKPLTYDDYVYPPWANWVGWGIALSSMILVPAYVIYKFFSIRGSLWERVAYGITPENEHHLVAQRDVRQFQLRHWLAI

[13] = Studies in animals: addictive and respiratory depressant properties; type: in vivo; conditions: versus narcotic-related analgesics
Rat PQW = type: in vivo
Procedure: as §1

T1 sequence (P23977 whole entry): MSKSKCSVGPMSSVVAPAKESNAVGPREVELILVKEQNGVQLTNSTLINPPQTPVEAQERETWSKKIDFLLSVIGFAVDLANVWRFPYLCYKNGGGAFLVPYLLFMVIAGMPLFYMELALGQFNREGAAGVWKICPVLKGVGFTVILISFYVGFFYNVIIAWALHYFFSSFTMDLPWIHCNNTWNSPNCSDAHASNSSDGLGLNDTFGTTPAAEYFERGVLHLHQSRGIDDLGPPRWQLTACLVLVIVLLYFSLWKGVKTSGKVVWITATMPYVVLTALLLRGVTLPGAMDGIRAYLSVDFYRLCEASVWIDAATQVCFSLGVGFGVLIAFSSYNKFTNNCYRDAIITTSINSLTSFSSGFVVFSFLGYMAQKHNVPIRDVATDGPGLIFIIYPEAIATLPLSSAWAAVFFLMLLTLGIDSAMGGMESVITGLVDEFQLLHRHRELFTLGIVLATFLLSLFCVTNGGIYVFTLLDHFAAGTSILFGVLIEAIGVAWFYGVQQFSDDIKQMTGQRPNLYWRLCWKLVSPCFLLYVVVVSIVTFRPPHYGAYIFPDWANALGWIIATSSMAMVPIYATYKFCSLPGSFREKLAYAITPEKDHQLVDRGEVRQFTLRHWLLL

With `CN1CCC(c2ccsc2)(C(C)(C)O)CC1` [Compound A, 4-(3-thienyl)-α,α,1-trimethyl-4-piperidinemethanol] the uptake of dopamine (uptake of dopamine) was “inhibits uptake”, the “activity at sigma receptor sites” value [1] was “does not show significant activity” and the “NOEL (exophthalamos)” value [2] was “NOEL < 30 mg/kg”. For the same compound, the NOAEL at 14 day ([2]; rat, in vivo) was 100 mg/kg, the ED50 (Rat Randall-Selitto; Rattus norvegicus) was 32 mg/kg and the “activity in rat Randell-Selitto model” value (Rat Randall-Selitto; rat) was “Randell-Selitto^Φ”. The “monkeys responding following involuntary injections” value ([3]; Cynomologous monkeys) was “two out of four monkeys”, the self-administration response achieved ([3]; Cynomologous monkeys trained to self-administer) was “one out of four monkeys” and the “activity at mu receptor sites” value [4] was “does not show significant activity”. The ED50 (Mouse Tail-Flick; Mus musculus, read-out: Mouse Tail-Flick ED50) was 117 mg/kg, the “activity in mouse Tail flick model” value (Mouse Tail-Flick; mouse) was “Tail flick^Φ” and the IC50 [5] was 120 nM. The uptake of serotonin ([5]; rat brain preparations) was “inhibits uptake”, the “anticholinergic side effects, sedation or other signs of motor impairment” value [6] was “not accompanied by anticholinergic side effects, sedation or other signs of motor impairment” and the “effect upon arousal or motor function” value ([7]; at doses effective in formalin and Chung models) was “no effect upon arousal or motor function”. For the same compound, the “effect upon tactile allodynia arising from nerve injury” value ([7]; rat) was “reliable dose dependent effect”, the “effects on tactile allodynia” value ([7]; rat, two hours post injection, doses 200 mg/kg and 100 mg/kg) was “statistically significant effects” and the “activity at kappa receptor sites” value [8] was “does not show significant activity”. The LD (Safety pharmacology, rat; po) was “LD = 400 mg/kg-po”, the “anorexia, multiple of effective dose (mg/kg)” value (Safety pharmacology, rat; po) was 10,100,300 mg/kg and the physical dep (Safety pharmacology, rat; po) was “non-opioid”. The “respiratory acidosis, exophthalmia, multiple of effective dose” value (Safety pharmacology, rat; po) was 1-50 X, the LD (Safety pharmacology, rat; sc) was “LD = 270 mg/kg-sc” and the ED50 ([9]; Mus musculus) was 18 mg/kg. The “activity in mouse PQW model” value ([9]; mouse, unmarked entry of animal model table) was “showed activity”, the “anti-inflammatory effects in vivo” value [10] was “does not inhibit prostaglandin synthesase activity or show anti-inflammatory effects in vivo” and the “activity at delta receptor sites” value [11] was “does not show significant activity”. For the same compound, the “In Vitro Bacterial Mutagenicity: Modified Ames Test” value (Bacterial Mutagenicity) was “Not mutagenic”, the uptake of norepinephrine ([12]; rat brain preparations) was “inhibits uptake” and the IC50 ([12]; rat synaptosomal, read-out: NE uptake inhibition IC50) was 223 nM. For the same compound, the “addictive and respiratory depressant properties” value [13] was “lacks the addictive and respiratory depressant properties”, the ED50 (Rat PQW; Rattus norvegicus) was 7.9 mg/kg and the “activity in rat PQW model” value (Rat PQW; rat, unmarked entry of animal model table) was “showed activity”.
